ChEMBL document CHEMBL1144748, “N-D-aldopentofuranosyl-N'-[p-(isoamyloxy)phenyl]-thiourea derivatives: potential anti-TB therapeutic agents” (2008)
Values after ≈ are worked out from the molar mass of the structure shown.

Tested on: Mycobacterium tuberculosis
Assay: Antimycobacterial activity against Mycobacterium tuberculosis H37Rv by microplate alamar blue assay
Assay type: functional

SMILES | MIC [µg/mL]
CC(C)CCOc1ccc(NC(=S)NC2O[C@H](CO)[C@H](O)[C@H]2O)cc1 (stereo not given in full) | 6.25 (≈ 16.9 µM)
CC(C)CCOc1ccc(NC(=S)NC2O[C@H](CO)[C@H](O)[C@@H]2O)cc1 (stereo not given in full) | 50 (≈ 135 µM)
CC(C)CCOc1ccc(NC(=S)Nc2ccc(OCCC(C)C)cc2)cc1 [TIOCARLIDE] | 2.5 (≈ 6.24 µM)
CC(C)CCOc1ccc(NC(=S)NC2O[C@H](CO)[C@@H](O)[C@@H]2O)cc1 (stereo not given in full) | 1.56 (≈ 4.21 µM)
CC(C)CCOc1ccc(NC(=S)NC2O[C@H](CO)[C@@H](O)[C@H]2O)cc1 (stereo not given in full) | 3.12 (≈ 8.44 µM)
